Results: BindingDB's records for patent US20250304549 (Sichuan Huiyu Pharmaceutical, 2025)

What was measured:
Histone deacetylase 8 = target: T1, Histone deacetylase 8 (Homo sapiens, UniProt Q9BY41); experiment: In Vitro Enzyme Inhibition Assay - HDAC
T1 sequence (Q9BY41 whole entry): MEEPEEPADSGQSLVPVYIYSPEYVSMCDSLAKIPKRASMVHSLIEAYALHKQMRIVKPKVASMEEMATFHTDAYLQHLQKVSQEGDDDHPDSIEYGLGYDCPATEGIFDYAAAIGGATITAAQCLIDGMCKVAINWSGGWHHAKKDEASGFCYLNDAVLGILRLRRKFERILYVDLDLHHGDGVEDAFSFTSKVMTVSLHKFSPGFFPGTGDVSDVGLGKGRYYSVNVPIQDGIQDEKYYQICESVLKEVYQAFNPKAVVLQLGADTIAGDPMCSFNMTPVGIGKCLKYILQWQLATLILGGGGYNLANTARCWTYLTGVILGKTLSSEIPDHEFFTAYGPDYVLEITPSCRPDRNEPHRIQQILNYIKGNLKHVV
Protocol: (§1) The effect of the compound on the enzymatic activity of pan-HDAC and two isoforms (HDAC1 and HDAC8) was examined using the HDAC-Glo I/II Assay and Screening System assay to assess the level of inhibition of HDAC protease activity and selectivity in each isoform. The proteins and detection reagents were from the HDAC-Glo™ I/II Assay and Screening System (Promega). A 1 mM stock solution of the compound was prepared in DMSO and diluted in a 5-fold gradient to create a series of 8 concentrations, and a specific volume of the highest concentration was diluted 25 times with HDAC Buffer to obtain 4× working solution of the compound. […] The 384-well plate was then read on a multifunctional microplate reader, with the Luminescence channel selected to record Luminescence values (RLU).

Histone deacetylase 1/8 = Histone deacetylase 1/8 (Homo sapiens, UniProt Q13547+Q9BY41); experiment: In Vitro Enzyme Inhibition Assay - HDAC
Protocol: as §1

[1] = target: Lysine-specific histone demethylase 1A (Homo sapiens, UniProt O60341); experiment: In Vitro Enzyme Inhibition Assay - LSD1
Protocol: Initially, a master solution of 90 μM test compound (dissolved in DMSO) was prepared and sequentially diluted with DMSO in a 5-fold concentration gradient to yield a total of 9 concentrations of the compound working solution 1 (90×). Subsequently these 9 concentrations of working solution 1 were sequentially diluted by a 30-fold concentration gradient, i.e., 2 μL of working solution 1 was aspirated and added to 58 μL of Buffer, mixed on a vortex mixer with sufficient shaking to yield 9 concentrations of the screening test compound working solution 2 (3×). […] The mixture was incubated at room temperature for 15 minutes. […] Afterward, 2 μL of a termination solution (containing 5.4 mM 2-PCPA) was added to each well, mixed evenly, and incubated for another 15 minutes. Finally 4 μL of a pre-mixed antibody solution of Eu-anti H3K4 (PerkinElmer, TRF0404-D) and allophycocyanin (Prozyme, PJ27S) (1:1) was added to each well, mixed evenly, and incubated for 60 minutes.

Histone deacetylase 1 = Histone deacetylase 1 (Homo sapiens, UniProt Q13547); experiment: In Vitro Enzyme Inhibition Assay - HDAC
Protocol: as §1

Histone deacetylase 1/8, sequence (Q13547 whole entry, one chain of several): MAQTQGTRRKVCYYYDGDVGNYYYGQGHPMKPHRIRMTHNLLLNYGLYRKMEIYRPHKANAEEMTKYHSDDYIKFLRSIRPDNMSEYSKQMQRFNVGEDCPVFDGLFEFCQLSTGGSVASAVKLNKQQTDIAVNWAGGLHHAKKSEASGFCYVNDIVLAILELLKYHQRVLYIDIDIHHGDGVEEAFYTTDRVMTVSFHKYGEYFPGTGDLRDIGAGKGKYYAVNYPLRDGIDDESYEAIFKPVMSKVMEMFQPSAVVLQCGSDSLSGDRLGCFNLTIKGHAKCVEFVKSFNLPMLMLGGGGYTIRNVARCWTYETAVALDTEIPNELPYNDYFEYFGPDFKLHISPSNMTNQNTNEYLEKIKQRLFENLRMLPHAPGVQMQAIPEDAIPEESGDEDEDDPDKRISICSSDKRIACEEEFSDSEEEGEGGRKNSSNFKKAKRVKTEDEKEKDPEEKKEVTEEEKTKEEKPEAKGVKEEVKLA
Histone deacetylase 1, sequence (Q13547 whole entry): as the sequence (Q13547 whole entry, one chain of several) above

| IC50 (Histone deacetylase 8) | IC50 (Histone deacetylase 1/8) | IC50 [1] | IC50 (Histone deacetylase 1) | SMILES |
| --- | --- | --- | --- | --- |
| 0.157 µM | 0.00159 µM |  |  | COc1ccc(-c2cnc(N3CCC(NCc4ccc(/C=C/C(=O)NO)cc4)CC3)c(F)c2-c2ccc(C#N)c(F)c2)cc1O [US20250304549, Example 76] |
|  |  | 0.00736 µM |  | COc1ccc(C2=C(C3C=NC(C#N)=CC3)C(C#N)C(N3CCC(NCc4ccc(/C=C/C(=O)NO)cc4)CC3)C=C2)cc1O (stereo not given) [US20250304549, Example 267] |
| 0.118 µM |  | 0.00041 µM | 0.00828 µM | CNC1CCN(C2N=CC(c3ccc(OCCCCCCC(=O)NO)c(O)c3)=C(c3ccc(C#N)c(F)c3)C2C#N)CC1 (stereo not given) [US20250304549, Example 24] |
| 0.0635 µM | 0.0195 µM | 0.00801 µM | 0.0106 µM | N#Cc1ccc(-c2c(-c3ccc(/C=C/C(=O)NO)c(O)c3)cnc(N3CCC(NCc4ccc(/C=C/C(=O)NO)cc4)CC3)c2C#N)cc1F [US20250304549, Example 90] |
|  | 0.114 µM |  |  | O=C(/C=C/c1ccc(CNC(=O)c2cc(CN[C@@H]3C[C@H]3c3ccc(F)cc3)nc(-c3ccc(-n4cccn4)cc3)n2)cc1)NO [US20250304549, Example 232] |
| 1.4 µM | 0.0517 µM | 0.00042 µM |  | COc1ccc(-c2cnc(N3CCC(NCc4ccc(/C=C/CC(=O)NO)cc4)CC3)c(C#N)c2-c2ccc(C#N)c(F)c2)cc1O [US20250304549, Example 169] |
| 0.446 µM |  | 0.0169 µM | 0.311 µM | COC1=C(OCCCCCCC(=O)NO)CC(C2=C(c3ccc(C#N)c(F)c3)N=C(N3CCC(N)CC3)N3C=CNC23)C=C1 (stereo not given) [US20250304549, Example 20] |
| 0.0584 µM | 0.00247 µM | 0.00105 µM | 0.00043 µM | Cc1ccc(-c2cnc(N3CCC(NCc4cnc(/C=C/C(=O)NO)nc4)CC3)c(C#N)c2-c2ccc(C#N)c(F)c2)cc1O [US20250304549, Example 148] |
| 0.0589 µM | 0.00105 µM | 0.00054 µM | 0.0005 µM | COc1ccc(-c2cnc(N3CCCC(NCc4ccc(/C=C/C(=O)NO)cc4)CC3)c(C#N)c2-c2ccc(C#N)c(F)c2)cc1O (stereo not given) [US20250304549, Example 149] |
